Assay results reported in patent US6706740B2, “Fungicidal heterocyclic aromatic amides and their compositions, methods of use and preparation” (Dow AgroSciences LLC, priority 1999, dated 2004).
Read-outs that look alike come from different tables or passages of the source.

Key:
[1] = system: Magnaporthe grisea (Pyricularia oryzae—PYRIOR); assay: microbe, parasite or virus in culture; assay type: cell-based; conditions: Pyricularia oryzae, read-out: PYRIOR in vitro Growth Inhibition
[2] = system: Rhizoctonia solani (RHIZSO); assay: microbe, parasite or virus in culture; assay type: cell-based; conditions: Rhizoctonia solani, read-out: RHIZSO in vitro Growth Inhibition
[3] = system: Mycosphaerella graminicola (Septoria tritici—SEPTTR); assay: In vitro fungal growth inhibition, Mycosphaerella graminicola (SEPTTR); assay type: cell-based; conditions: Zymoseptoria tritici, read-out: SEPTTR in vitro Growth Inhibition
[4] = system: Stagonospora nodorum (Leptosphaeria nodorum—LEPTNO); assay: In vitro fungal growth inhibition, Stagonospora nodorum (LEPTNO); assay type: cell-based; conditions: Leptosphaeria, read-out: LEPTNO in vitro Growth Inhibition
Ustilago maydis (USTIMA) = assay: microbe, parasite or virus in culture; assay type: cell-based; conditions: Mycosarcoma maydis, read-out: USTIMA in vitro Growth Inhibition
[5] = system: Phytophthora infestans (PHYTIN); assay: microbe, parasite or virus in culture; assay type: cell-based; conditions: Phytophthora infestans, read-out: PHYTIN in vitro Growth Inhibition
[6] = system: Phytophthora infestans—PHYTIN; assay: whole plant or invertebrate; assay type: in vivo; conditions: Phytophthora, in Solanum lycopersicum, 24 h, read-out: PHYTIN in vivo 1 Day Protectant
[7] = system: Puccinia recondita—PUCCRT; assay: Brown Rust of Wheat, in vivo whole plant, 24 Hour Protectant; conditions: for pest or weed control at 100 ppm: Puccinia, read-out: PUCCRT in vivo 1 Day Protectant
Erysiphe graminis—ERYSGT = assay: Powdery Mildew of Wheat, in vivo whole plant, 24 Hour Protectant; conditions: for pest or weed control at 100 ppm: Erysiphe, read-out: ERYSGT in vivo 1 Day Protectant
Septoria tritici—SEPTTR = assay: Leaf Blotch of Wheat, in vivo whole plant, 24 Hour Protectant; conditions: for pest or weed control at 100 ppm: Zymoseptoria tritici, 24 h, read-out: SEPTTR in vivo 1 Day Protectant
[8] = system: Leptosphaeria nodorum—LEPTNO; assay: Glume Blotch of Wheat, in vivo whole plant, 24 Hour Protectant; conditions: for pest or weed control at 100 ppm: Leptosphaeria, read-out: LEPTNO in vivo 1 Day Protectant
[9] = 100 ppm spray, 24 hour protectant, wheat, control of fungal infection vs untreated plants
[10] = wheat plants sprayed at 100 ppm, inoculated after 24 hours, control of fungal infection vs untreated plants
[11] = 100 ppm spray, wheat, 24 hour protectant, % control of fungal infection vs untreated plants
[12] = 100 ppm spray, wheat, 24 hour protectant, control of fungal infection vs untreated plants

| Structure (SMILES) | inhibition at 25 ppm [1] | inhibition at 25 ppm [2] | inhibition at 25 ppm ([3]; 25 ppm in growth medium) | inhibition at 25 ppm ([4]; 25 ppm in growth medium) | inhibition at 25 ppm (Ustilago maydis (USTIMA)) | inhibition at 25 ppm [5] | pest or weed control at 100 ppm [6] | melting point | inhibition at 25 ppm ([3]; 25 ppm in the growth medium) | inhibition at 25 ppm ([4]; 25 ppm in the growth medium) | pest or weed control at 100 ppm [7, 10] | pest or weed control at 100 ppm (Erysiphe graminis—ERYSGT; [10]) | pest or weed control at 100 ppm (Septoria tritici—SEPTTR; [10]) | pest or weed control at 100 ppm [8, 10] | also measured |
| --- | --- | --- | --- | --- | --- | --- | --- | --- | --- | --- | --- | --- | --- | --- | --- |
| COc1ccnc(C(=O)NC2c3ccccc3CC2(C)C)c1O (stereo not drawn) [Compound 284] | < 80% | < 80% | < 80% | < 80% | < 80% | < 80% | < 25% | 122 to 128 °C |  |  |  |  |  |  | pest or weed control at 100 ppm [7, 9]: 25 to 74%; pest or weed control at 100 ppm (Erysiphe graminis—ERYSGT; [9]): < 25%; pest or weed control at 100 ppm (Septoria tritici—SEPTTR; [9]): 25 to 74%; pest or weed control at 100 ppm [8, 9]: 25 to 74% |
| Cc1ccnc(C(=O)NC2COC(=O)[C@H](Cc3ccccc3)[C@@H](OC(=O)C(C)C)[C@H](C)OC2=O)c1O (stereo partly drawn) [Compound 237] | < 80% | < 80% | < 80% | < 80% | < 80% | < 80% | < 25% | 122 to 134 °C |  |  |  |  |  |  | PUCCRT in vivo 1 Day Protectant [7, 9]: + +; pest or weed control at 100 ppm (Erysiphe graminis—ERYSGT; [9]): < 25%; pest or weed control at 100 ppm (Septoria tritici—SEPTTR; [9]): 25 to 74%; pest or weed control at 100 ppm [8, 9]: 25 to 74% |
| CC(C)C(=O)O[C@H]1[C@H](C)OC(=O)[C@@H](NC(=O)c2cc(O)cnc2O)COC(=O)[C@@H]1Cc1ccccc1 [Compound 527] | < 80% | < 80% |  |  | < 80% | < 80% | < 25% | 120 to 130 °C | < 80% | < 80% | 25 to 74% | < 25% | 25 to 74% | < 25% |  |
| COc1ccnc(C(=O)N[C@H]2COC(=O)[C@H](Cc3ccccc3)[C@@H](OC(=O)C(C)C)[C@H](C)OC2=O)c1OC(=O)C1CC1 [Compound 601] | < 80% | < 80% | < 80% | < 80% | < 80% | < 80% | < 25% | 195 to 196 °C |  |  |  |  |  |  | PUCCRT in vivo 1 Day Protectant [7, 11]: + +; pest or weed control at 100 ppm (Erysiphe graminis—ERYSGT; [11]): < 25%; SEPTTR in vivo 1 Day Protectant (Septoria tritici—SEPTTR; [11]): + +; LEPTNO in vivo 1 Day Protectant [8, 11]: + + |
| COCCC(=O)Oc1c(OC)ccnc1C(=O)Nc1cccc(C(=O)Nc2ccc(C(F)(F)F)cc2)c1 [Compound 714] | < 80% | < 80% | < 80% | < 80% | < 80% | < 80% | < 25% | 187 to 189 °C |  |  |  |  |  |  | pest or weed control at 100 ppm [7, 11]: < 25%; pest or weed control at 100 ppm (Erysiphe graminis—ERYSGT; [11]): < 25%; pest or weed control at 100 ppm (Septoria tritici—SEPTTR; [11]): 25 to 74%; pest or weed control at 100 ppm [8, 11]: 25 to 74% |
| CC1(C)CC(NC(=O)c2nnc(O)nc2O)CC(C)(C)C1 [Compound 543] | < 80% | < 80% |  |  | < 80% | < 80% | < 25% | 283 to 285 °C | < 80% | < 80% | < 25% | < 25% | < 25% | 25 to 74% |  |
| CC(NC(=O)c1nc(Br)ccc1O)c1ccc(Cl)cc1 (stereo not drawn) [Compound 487] | > 80% | < 80% |  |  | < 80% | < 80% | < 25% | 106 to 107 °C | < 80% | < 80% | 25 to 74% | < 25% | < 25% | < 25% |  |
| COc1ccnc(C(=O)Nc2ccc(OC3CC(C)(C)CC(C)(C)C3)cc2)c1O [Compound 458] | < 80% | < 80% | < 80% | > 80% | < 80% | < 80% | < 25% | 141 to 142 °C |  |  |  |  |  |  | pest or weed control at 100 ppm [7, 12]: 25 to 74%; pest or weed control at 100 ppm (Erysiphe graminis—ERYSGT; [12]): < 25%; pest or weed control at 100 ppm (Septoria tritici—SEPTTR; [12]): < 25%; LEPTNO in vivo 1 Day Protectant [8, 12]: + + |
| COc1ccnc(C(=O)N[C@H]2COC(=O)[C@H](Cc3ccccc3)[C@@H](OCC(C)C)[C@H](C)OC2=O)c1O [Compound 384] | > 80% | < 80% | > 80% | > 80% | < 80% | < 80% | < 25% | 172 to 174 °C |  |  |  |  |  |  | pest or weed control at 100 ppm [7, 12]: 25 to 74%; ERYSGT in vivo 1 Day Protectant (Erysiphe graminis—ERYSGT; [12]): + +; pest or weed control at 100 ppm (Septoria tritici—SEPTTR; [12]): 25 to 74%; LEPTNO in vivo 1 Day Protectant [8, 12]: + + |
| CC(C)C(=O)O[C@H]1[C@H](C)OC(=O)[C@@H](NC(=O)c2nnccc2O)COC(=O)[C@@H]1Cc1ccccc1 [Compound 532] | < 80% | < 80% |  |  | < 80% | < 80% | 25 to 74% | 233 °C (dec.) | < 80% | < 80% | 25 to 74% | 25 to 74% | 25 to 74% | 25 to 74% |  |
| COCCC(=O)Oc1c(OC)ccnc1C(=O)Nc1cccc(NC(=O)c2ccc(C(F)(F)F)cc2)c1 [Compound 718] | < 80% | < 80% | < 80% | < 80% | < 80% | < 80% | < 25% | 115 to 118 °C |  |  |  |  |  |  | pest or weed control at 100 ppm [7, 11]: 25 to 74%; pest or weed control at 100 ppm (Erysiphe graminis—ERYSGT; [11]): < 25%; SEPTTR in vivo 1 Day Protectant (Septoria tritici—SEPTTR; [11]): + +; pest or weed control at 100 ppm [8, 11]: 25 to 74% |
| O=C(OC1CCC(NC(=O)c2ncccc2O)CC1)c1ccccc1 (stereo not drawn) [Compound 211] | < 80% | < 80% | < 80% | < 80% | < 80% | < 80% | < 25% | 154 to 157 °C |  |  |  |  |  |  | pest or weed control at 100 ppm [7, 9]: < 25%; pest or weed control at 100 ppm (Erysiphe graminis—ERYSGT; [9]): < 25%; pest or weed control at 100 ppm (Septoria tritici—SEPTTR; [9]): 25 to 74%; pest or weed control at 100 ppm [8, 9]: 25 to 74% |
| COc1ccc(CNC(=O)c2ncccc2O)cc1 [Compound 226] | < 80% | < 80% | < 80% | < 80% | < 80% | > 80% | < 25% | 96 to 97 °C |  |  |  |  |  |  | pest or weed control at 100 ppm [7, 9]: < 25%; pest or weed control at 100 ppm (Erysiphe graminis—ERYSGT; [9]): 25 to 74%; pest or weed control at 100 ppm (Septoria tritici—SEPTTR; [9]): < 25%; pest or weed control at 100 ppm [8, 9]: < 25% |
| O=C(Nc1ccccc1Oc1ccccc1)c1cccnc1O [Compound 520] | < 80% | < 80% |  |  | < 80% | < 80% | < 25% | 234 to 235 °C | < 80% | < 80% | < 25% | < 25% | < 25% | 25 to 74% |  |
